Columns and labels:
Type in all cases: in vivo
[1] = test system: Diabrotica balteata (Corn Root Worm); experiment: Diabrotica balteata (corn root worm), sprayed maize sprouts; conditions: 96 h, application rate of 200 ppm, L2 larvae on maize sprouts, 4 days after infestation
Protocol: Example B2: Diabrotica balteata (Corn Root Worm)
Maize sprouts, placed on an agar layer in 24-well microtiter plates were treated with aqueous test solutions prepared from 10′000 ppm DMSO stock solutions by spraying. After drying, the plates were infested with L2 larvae (6 to 10 per well). The samples were assessed for mortality and growth inhibition in comparison to untreated samples 4 days after infestation.

[2] = test system: Aedes aegypti (Yellow Fever Mosquito); experiment: Activity against Aedes aegypti (yellow fever mosquito), dried deposits in tissue culture plates; conditions: application rate of 200 ppm in ethanol, adult females, after 48 h
Protocol: Example B12: Activity Against Aedes aegypti (Yellow Fever Mosquito)
Test solutions, at an application rate of 200 ppm in ethanol, were applied to 12-well tissue culture plates. Once the deposits were dry, five, two to five days old adult female Aedes aegypti were added to each well, and sustained with a 10% sucrose solution in a cotton wool plug. Assessment of knockdown was made one hour after introduction, and mortality was assessed at 24 and 48 hours after introduction.
The following compounds gave at least 80% control of Aedes aegypti after 48 h: […]

[3] = test system: Spodoptera littoralis (Egyqptian Cotton Leaf Worm); experiment: Spodoptera littoralis (Egyptian cotton leaf worm), sprayed cotton leaf discs; conditions: foliar, 72 h, application rate of 200 ppm, L1 larvae on cotton leaf discs, 3 days after infestation
Summary of the method: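 Cotton leaf discs on agar were sprayed with aqueous dilutions made from 10′000 ppm DMSO stocks, then infested after drying with five L1 larvae. Mortality, anti-feedant effect and growth inhibition were scored against untreated discs 3 days after infestation. Control means at least one of these exceeds the untreated sample.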

[4] = test system: Plutella xylostella (Diamond Back Moth); experiment: Plutella xylostella (diamond back moth), treated artificial diet; conditions: 120 h, application rate of 200 ppm, L2 larvae on artificial diet, 5 days after infestation, read-out: effect in at least one of the two categories (mortality or growth inhibition)
Summary of the method: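 Artificial diet treated with aqueous dilutions of DMSO stocks (10′000 ppm stock), dried, then infested with 10-15 L2 larvae per well. Mortality and growth inhibition assessed versus untreated controls 5 days after infestation.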

[5] = test system: Spodoptera littoralis (Egyqptian Cotton Leaf Worm); experiment: Spodoptera littoralis (Egyptian cotton leaf worm), compound in agar taken up by lettuce roots; conditions: 144 h, test rate of 12.5 ppm, uptake by lettuce roots from agar, 6 days after infestation, read-out: effect in at least one of the three categories (mortality, anti-feedancy, or growth inhibition)
Text: Example B8: Spodoptera littoralis (Egyqptian Cotton Leaf Worm)
Test compounds were applied by pipette from 10′000 ppm DMSO stock solutions into 24-well plates and mixed with agar. Lettuce seeds were placed on the agar and the multi well plate was closed by another plate which contains also agar. After 7 days the roots have absorbed the compound and the lettuce has grown into the lid plate. The lettuce leafs were now cut off into the lid plate. Spodoptera eggs were pipetted through a plastic stencil on a humid gel blotting paper and the plate closed with it. The samples were assessed for mortality, anti-feedant effect and growth inhibition in comparison to untreated samples 6 days after infestation.
The following compounds gave an effect of at least 80% in at least one of the three categories (mortality, anti-feedancy, or growth inhibition) at a test rate of 12.5 ppm: […]

[6] = test system: Euschistus heros (Neotropical Brown Stink Bug); experiment: Euschistus heros (neotropical brown stink bug), sprayed soybean leaf; conditions: 120 h, application rate of 200 ppm, N-2 nymphs on soybean leaf, 5 days after infestation
Protocol: Example B3: Euschistus heros (Neotropical Brown Stink Bug)
Soybean leaf on agar in 24-well microtiter plates were sprayed with aqueous test solutions prepared from 10′000 ppm DMSO stock solutions. After drying the leaf were infested with N-2 nymphs. The samples were assessed for mortality in comparison to untreated samples 5 days after infestation.

[7] = test system: Bemisia tabaci (Cotton White Fly); experiment: Bemisia tabaci (cotton white fly), sprayed cotton leaf discs; conditions: foliar, 144 h, application rate of 200 ppm, adult white flies on cotton leaf discs, 6 days after incubation
Protocol: Example B1: Bemisia tabaci (Cotton White Fly)
Cotton leaf discs were placed on agar in 24-well microtiter plates and sprayed with aqueous test solutions prepared from 10′000 ppm DMSO stock solutions. After drying the leaf discs were infested with adult white flies. The samples were checked for mortality 6 days after incubation.

[8] = test system: Myzus persicae (Green Peach Aphid); experiment: Myzus persicae (green peach aphid), sprayed sunflower leaf discs; conditions: foliar, 144 h, application rate of 200 ppm, mixed ages on sunflower leaf discs, 6 days after infestation
Protocol: Example B4: Myzus persicae (Green Peach Aphid)
(§1) Sunflower leaf discs were placed on agar in a 24-well microtiter plate and sprayed with aqueous test solutions prepared from 10′000 ppm DMSO stock solutions. After drying, the leaf discs were infested with an aphid population of mixed ages. The samples were assessed for mortality 6 days after infestation.

[9] = test system: Myzus persicae (Green Peach Aphid); experiment: Myzus persicae (green peach aphid), roots of pea seedlings in test solution; conditions: 144 h, test rate of 24 ppm, roots of infested pea seedlings in test solution, 6 days
Protocol: Example B5: Myzus persicae (Green Peach Aphid)
Roots of pea seedlings infested with an aphid population of mixed ages were placed directly in the aqueous test solutions prepared from 10′000 DMSO stock solutions. The samples were assessed for mortality 6 days after placing seedlings in test solutions.

[10] = test system: Frankliniella occidentalis (Western Flower Thrips); experiment: Frankliniella occidentalis (western flower thrips), sprayed sunflower leaf discs; conditions: foliar, 168 h, application rate of 200 ppm, mixed ages on sunflower leaf discs, 7 days after infestation
Protocol: Example B11: Frankliniella occidentalis (Western Flower Thrips)
as §1, with “in” for “in a”, “plates” for “plate”, “[…]” for “10′000 ppm”, “drying” for “drying,”, “a Frankliniella” for “an aphid”, “7” for “6”

CCS(=O)(=O)c1cc(-n2ccc(C(F)(F)F)n2)cnc1-c1nc2cc(C(F)(F)F)ncc2n1C [Compound P2, 2-[3-ethylsulfonyl-5-[3-(trifluoromethyl)pyrazol-1-yl]-2-pyridyl]-3-methyl-6-(trifluoromethyl)imidazo[4,5-c]pyridine]
≥ 80%: mortality at 200 ppm [1] | pest or weed control at 200 ppm [2] | percent control (mortality, anti-feedant effect or growth inhibition) at 200 ppm [3] | percent effect (mortality or growth inhibition) at 200 ppm [4] | percent control (mortality, anti-feedancy or growth inhibition) at 12.5 ppm [5] | mortality at 200 ppm [6] | mortality at 200 ppm [7] | mortality at 200 ppm [8]

CCS(=O)(=O)c1cc(-c2ccc(C(F)(F)F)nc2)cnc1-c1nc2cc(C(F)(F)F)ncc2n1C [Compound P5]
≥ 80%: mortality at 24 ppm [9] | mortality at 200 ppm [10] | mortality at 200 ppm [1] | percent control (mortality, anti-feedant effect or growth inhibition) at 200 ppm [3] | percent effect (mortality or growth inhibition) at 200 ppm [4] | percent control (mortality, anti-feedancy or growth inhibition) at 12.5 ppm [5] | mortality at 200 ppm [6] | mortality at 200 ppm [7] | mortality at 200 ppm [8]

CCS(=O)(=O)c1cc(-c2cccc[n+]2O)cnc1-c1nc2cc(C(F)(F)F)ncc2n1C [Compound P56]
≥ 80%: mortality at 24 ppm [9] | mortality at 200 ppm [10] | mortality at 200 ppm [1] | percent control (mortality, anti-feedant effect or growth inhibition) at 200 ppm [3] | percent effect (mortality or growth inhibition) at 200 ppm [4] | percent control (mortality, anti-feedancy or growth inhibition) at 12.5 ppm [5] | mortality at 200 ppm [6] | mortality at 200 ppm [8]

CCS(=O)(=O)c1cc(-c2ccnc(F)c2)cnc1-c1nc2cc(C(F)(F)F)ncc2n1C [Compound P70]
≥ 80%: mortality at 24 ppm [9] | mortality at 200 ppm [10] | mortality at 200 ppm [1] | percent control (mortality, anti-feedant effect or growth inhibition) at 200 ppm [3] | percent effect (mortality or growth inhibition) at 200 ppm [4] | percent control (mortality, anti-feedancy or growth inhibition) at 12.5 ppm [5] | mortality at 200 ppm [6] | mortality at 200 ppm [7] | mortality at 200 ppm [8]

CCS(=O)(=O)c1cc(-n2ccc(Cl)n2)cnc1-c1nc2cc(C(F)(F)F)ncc2n1C [Compound P88]
≥ 80%: mortality at 200 ppm [1] | pest or weed control at 200 ppm [2] | percent control (mortality, anti-feedant effect or growth inhibition) at 200 ppm [3] | percent effect (mortality or growth inhibition) at 200 ppm [4] | percent control (mortality, anti-feedancy or growth inhibition) at 12.5 ppm [5] | mortality at 200 ppm [6] | mortality at 200 ppm [7] | mortality at 200 ppm [8]

CCS(=O)(=O)c1cc(-c2ncccn2)ccc1-c1nc2cc(C(F)(F)F)ncc2n1C [Compound P89]
≥ 80%: mortality at 200 ppm [10] | mortality at 200 ppm [1] | pest or weed control at 200 ppm [2] | percent control (mortality, anti-feedant effect or growth inhibition) at 200 ppm [3] | percent effect (mortality or growth inhibition) at 200 ppm [4] | percent control (mortality, anti-feedancy or growth inhibition) at 12.5 ppm [5] | mortality at 200 ppm [6] | mortality at 200 ppm [8]

CCS(=O)(=O)c1cc(-n2ccc(C(F)(F)F)n2)ccc1-c1nc2cc(C(F)(F)F)ncc2n1C [Compound P90]
≥ 80%: mortality at 200 ppm [1] | pest or weed control at 200 ppm [2] | percent control (mortality, anti-feedant effect or growth inhibition) at 200 ppm [3] | percent effect (mortality or growth inhibition) at 200 ppm [4] | percent control (mortality, anti-feedancy or growth inhibition) at 12.5 ppm [5] | mortality at 200 ppm [6] | mortality at 200 ppm [7] | mortality at 200 ppm [8]

CCS(=O)(=O)c1cc(-c2nccc(C#N)n2)cnc1-c1nc2cc(C(F)(F)F)ncc2n1C [Compound P101]
≥ 80%: mortality at 200 ppm [1] | pest or weed control at 200 ppm [2] | percent control (mortality, anti-feedant effect or growth inhibition) at 200 ppm [3] | percent effect (mortality or growth inhibition) at 200 ppm [4] | mortality at 200 ppm [6] | mortality at 200 ppm [8]

CCS(=O)(=O)c1cc(-c2ccnc(C(F)(F)F)n2)cnc1-c1nc2cc(C(F)(F)F)ncc2n1C [Compound P108]
≥ 80%: mortality at 200 ppm [1] | pest or weed control at 200 ppm [2] | percent control (mortality, anti-feedant effect or growth inhibition) at 200 ppm [3] | percent effect (mortality or growth inhibition) at 200 ppm [4] | percent control (mortality, anti-feedancy or growth inhibition) at 12.5 ppm [5] | mortality at 200 ppm [6] | mortality at 200 ppm [7] | mortality at 200 ppm [8]

From US9809587B2, “Pesticidally active heterocyclic derivatives with sulphur containing substituents” (Syngenta Participations AG, priority 2014, dated 2017)
